Experimental data as given in patent US12577213B2 (NINGBO COMBIREG PHARMACEUTICAL TECHNOLOGY CO., LTD., priority 2020, dated 2026).
Like-named read-outs stand apart in the source and are kept apart here.

Tests used:
786-0 (renal cancer) = assay: NCI method SRB growth inhibition, 786-0; type: cell-based; conditions: Homo sapiens; 786-0, treated 48 hours, SRB stain
Excerpt: (§1) In this embodiment, the method of National Cancer Institute (NCI) was used to evaluate the anti-tumor activity of the embodiment compounds in the present disclosure. Nine representative cell lines were selected for activity evaluation, including A549 (non-small cell lung cancer), HCT116 (colon cancer), SF295 (central nervous system tumor), LOX-IMVI (melanoma), 786-0 (renal cancer), K562 (leukemia), PC-3 (prostate cancer), OVCAR-3 (ovarian cancer) and HS 578T (breast cancer).
(§2) The specific method was as follows: 60 tumor cell lines of 9 kinds of human cancers were used to evaluate the inhibitory activity of the compound in vitro. A test group, a parallel control group and a vehicle control group were set up. The parallel control group was fixed immediately before the compound was added; the cells in the test group were fixed after being treated with the compound for 48 hours; the vehicle control group was fixed after an equal volume of complete medium was added for 48 hours. Sulforhodamine B (SRB) was used to stain, and the OD value was measured at a wavelength of 515 nm. The specific calculation method was as follows: the OD value of the parallel control group was recorded as Tz, the OD value of the vehicle control group was recorded as C, and the OD value of the test group was recorded as (Ti). If Ti≥Tz, it means that the cells still grow after the drug was added, and the growth rate %=[(Ti−Tz)/(C−Tz)]×100; if Ti<Tz, it means that the cells are killed after the drug was added, and the growth rate %=[(Ti−Tz)/Tz]×100. Three parameters were used to evaluate the anti-tumor activity of compounds in this method: 50% growth inhibitory concentration (GI50): i.e. the compound concentration at [(Ti−Tz)/(C−Tz)]×100=50; complete growth inhibitory concentration (TGI): the compound concentration at Ti=Tz; the drug concentration required to kill 50% of the cells (LC50): i.e. the compound concentration at [(Ti−Tz)/Tz]×100=−50.
(§3) The inhibitory activities of the embodiment compounds on nine representative tumor cell lines were listed in detail in Table 1. Wherein, the GI50 value means “50% growth inhibition rate”, that is, the concentration of the compound to be tested when it can inhibit […] of cell growth; “ND” means not detected.

[1] = test system: SF295 (central nervous system tumor); assay: NCI method SRB growth inhibition, SF295; type: cell-based; conditions: Homo sapiens, SF-295; SF295, treated 48 hours, SRB stain
Excerpt: as §1, §2, §3

[2] = test system: A549 (non-small cell lung cancer); assay: NCI method SRB growth inhibition, A549; type: cell-based; conditions: Homo sapiens; A549, treated 48 hours, SRB stain
Excerpt: as §1, §2, §3

[3] = Liver microsomes stability; type: in vitro ADME, human; conditions: 1 μM compound, 1 mg/mL human liver microsomes, 1 mM NADPH; for half-life at 1 μM: read-out: T½ of HLM
Experimental: The compound to be tested with final concentration of 1 μM was incubated with 1 mg/mL of human liver microsomes and 1 mM of NADPH, and a group without NADPH was set as a negative control. The reaction mixture was quenched with methanol at five time points of 0, 5, 15, 30 and 60 min, respectively, then centrifuged at 2500 rpm for 20 min to precipitate proteins, and the resulting supernatant was analyzed by LC-MS/MS. The data was analyzed and the k value and half-life T1/2 was calculated, T1/2(min)=0.693/k.
Wherein, compounds a, b and c are active compounds disclosed in patent No. ZL201610154581.3.

K562 (leukemia) = assay: NCI method SRB growth inhibition, K562; type: cell-based; conditions: Homo sapiens; K562, treated 48 hours, SRB stain
Excerpt: as §1, §2, §3

OVCAR-3 (ovarian cancer) = assay: NCI method SRB growth inhibition, OVCAR-3; type: cell-based; conditions: Homo sapiens; OVCAR-3, treated 48 hours, SRB stain
Excerpt: as §1, §2, §3

HCT116 (colon cancer) = assay: NCI method SRB growth inhibition, HCT116; type: cell-based; conditions: Homo sapiens, HCT-116; HCT116, treated 48 hours, SRB stain
Excerpt: as §1, §2, §3

LOX-IMVI (melanoma) = assay: NCI method SRB growth inhibition, LOX-IMVI; type: cell-based; conditions: Homo sapiens, treated 48 hours, SRB stain
Excerpt: as §1, §2, §3

HS 578T (breast cancer) = assay: NCI method SRB growth inhibition, HS 578T; type: cell-based; conditions: Homo sapiens, HS578T, treated 48 hours, SRB stain
Excerpt: as §1, §2, §3

PC-3 (prostate cancer) = assay: NCI method SRB growth inhibition, PC-3; type: cell-based; conditions: Homo sapiens; PC-3, treated 48 hours, SRB stain
Excerpt: as §1, §2, §3

Row | microsomal CLint at 1 μM [3] [µL/min/mg] | half-life at 1 μM ([3]; human, human liver microsomes) [h] | SMILES | GI50 (786-0 (renal cancer)) [nM] | GI50 [1] [nM] | GI50 [2] [nM] | half-life at 1 μM [3] [h] | microsomal CLint at 1 μM ([3]; human, human liver microsomes) [µL/min/mg] | GI50 (K562 (leukemia)) [nM] | GI50 (OVCAR-3 (ovarian cancer)) [nM] | GI50 (HCT116 (colon cancer)) [nM] | GI50 (LOX-IMVI (melanoma)) [nM] | GI50 (HS 578T (breast cancer)) [nM] | GI50 (PC-3 (prostate cancer)) [nM]
1 |  |  | [2H]C([2H])([2H])Oc1cc(C(=O)Nc2cc3c(cc2Oc2cc(C)cc(C)c2)C(=O)N(C)[C@@H](CC(=O)N2CCN(C)CC2)C(=O)N3)c(Br)c(OC([2H])([2H])[2H])c1OC([2H])([2H])[2H] [Compound 28] | 66 | 18 | < 5 | 0.697 | 16.8 | < 5 | < 5 | < 5 | < 5 | < 5 | < 5
2 | 5.4 | 2.13 | [2H]C([2H])([2H])Oc1cc(C(=O)Nc2cc3c(cc2Oc2cc(C)cc(C)c2)C(=O)N[C@@H](CC(=O)N2CCN(C)CC2)C(=O)N3)c(Br)c(OC([2H])([2H])[2H])c1OC([2H])([2H])[2H] [Compound 29, (S)-2-bromo-N-[7-(3,5-dimethylphenoxy)-3-[2-(4-methylpiperazin-1-yl)-2-oxoethyl]-2,5-dioxo-2,3,4,5-tetrahydro-1H-benzo[e][1,4]diazepin-8-yl]-3,4,5-tris(trideuteromethoxy)benzamide] | 244 | 93.8 | 11.8 |  |  | 4.2 | < 5 | 12 | < 5 | < 5 | < 5
3 | 4.3 | 2.68 | [2H]C([2H])([2H])Oc1cc(C(=O)Nc2cc3c(cc2Oc2cc(C)cc(C)c2)C(=O)N[C@@H](CC(=O)N(C)OC)C(=O)N3)c(Br)c(OC([2H])([2H])[2H])c1OC([2H])([2H])[2H] [Compound 30] | 8.6 | 11.6 | 4.9 |  |  | 1.6 | < 5 | 7.8 | < 5 | < 5 | < 5
4 |  |  | [2H]C([2H])([2H])Oc1cc(C(=O)Nc2cc3c(cc2Oc2cc(C)cc(C)c2)C(=O)N[C@@H](CC(=O)N(C)O)C(=O)N3)c(Br)c(OC([2H])([2H])[2H])c1OC([2H])([2H])[2H] [Compound 31] | 28.1 | 58 | < 5 | 0.722 | 16 | < 5 | < 5 | 17 | < 5 | 8.6 | < 5
5 |  |  | [2H]C([2H])([2H])Oc1cc(C(=O)Nc2cc3c(cc2Oc2cc(C)cc(C)c2)C(=O)N(C)[C@@H](CC(=O)N(C)OC)C(=O)N3)c(Br)c(OC([2H])([2H])[2H])c1OC([2H])([2H])[2H] [Compound 32] | < 5 | 5 | < 5 | 0.412 | 28.1 | < 5 | < 5 | < 5 | < 5 | < 5 | < 5
6 |  |  | [2H]C([2H])([2H])Oc1cc(C(=O)Nc2cc3c(cc2Oc2cc(C)cc(C)c2)C(=O)N(C)[C@@H](CC(=O)N(OC([2H])([2H])[2H])C([2H])([2H])[2H])C(=O)N3)c(Br)c(OC([2H])([2H])[2H])c1OC([2H])([2H])[2H] [Compound 34] | < 5 | < 5 | < 5 | 1.2 | 9.6 | < 5 | < 5 | < 5 | < 5 | < 5 | < 5
7 | 11.7 | 0.987 | [2H]C([2H])([2H])Oc1cc(C(=O)Nc2cc3c(cc2Oc2cc(C)cc(C)c2)C(=O)N[C@@H](CC(=O)N(C)OC)C(=O)N3)c(Cl)c(OC([2H])([2H])[2H])c1OC([2H])([2H])[2H] [Compound 35] | 21.1 | 29 | < 5 |  |  | < 5 | < 5 | 9.8 | 5.6 | 16 | < 5
8 | 6.8 | 1.7 | [2H]C([2H])([2H])Oc1cc(C(=O)Nc2cc3c(cc2Oc2cc(C)cc(C)c2)C(=O)N(C)[C@@H](CC(=O)N(C)OC)C(=O)N3)c(Cl)c(OC([2H])([2H])[2H])c1OC([2H])([2H])[2H] [Compound 36] | 11.9 | 10 | < 5 |  |  | < 5 | < 5 | < 5 | < 5 | 8.5 | < 5
9 | 7.7 | 1.5 | [2H]C([2H])([2H])Oc1cc(C(=O)Nc2cc3c(cc2Oc2cc(C)cc(C)c2)C(=O)N[C@@H](CC(=O)N(OC([2H])([2H])[2H])C([2H])([2H])[2H])C(=O)N3)c(Br)c(OC([2H])([2H])[2H])c1OC([2H])([2H])[2H] [Compound 37] | 8.6 | 12 | < 5 |  |  | < 5 | < 5 | < 5 | < 5 | < 5 | < 5
10 | 7.2 | 1.6 | [2H]C([2H])([2H])Oc1cc(C(=O)Nc2cc3c(cc2Oc2cc(C)cc(C)c2)C(=O)N[C@@H](CC(=O)N(OC([2H])([2H])[2H])C([2H])([2H])[2H])C(=O)N3)c(Cl)c(OC([2H])([2H])[2H])c1OC([2H])([2H])[2H] [Compound 38] | 23 | 27 | < 5 |  |  | < 5 | < 5 | 13 | 5.2 | 21 | < 5
11 | 13.7 | 0.843 | [2H]C([2H])([2H])Oc1cc(C(=O)Nc2cc3c(cc2Oc2cc(C)cc(C)c2)C(=O)N(C)[C@@H](CC(=O)N(OC([2H])([2H])[2H])C([2H])([2H])[2H])C(=O)N3)c(Cl)c(OC([2H])([2H])[2H])c1OC([2H])([2H])[2H] [Compound 39] | 9 | 12 | < 5 |  |  | < 5 | < 5 | 7 | < 5 | 6 | < 5
12 | 9 | 1.28 | [2H]C([2H])([2H])Oc1cc(C(=O)Nc2cc3c(cc2Oc2cc(C)cc(C)c2)C(=O)N[C@@H](CC(=O)N(C)OC([2H])([2H])[2H])C(=O)N3)c(Br)c(OC([2H])([2H])[2H])c1OC([2H])([2H])[2H] [Compound 40] | < 5 | < 5 | < 5 |  |  | < 5 | < 5 | < 5 | < 5 | < 5 | < 5
13 | 7.6 | 1.52 | [2H]C([2H])([2H])Oc1cc(C(=O)Nc2cc3c(cc2Oc2cc(C)cc(C)c2)C(=O)N[C@@H](CC(=O)N(OC)C([2H])([2H])[2H])C(=O)N3)c(Br)c(OC([2H])([2H])[2H])c1OC([2H])([2H])[2H] [Compound 41] | < 5 | < 5 | < 5 |  |  | < 5 | < 5 | < 5 | < 5 | < 5 | < 5
